Here are results for two compounds from article PMC6131351, “Pharmacological difference between degrader and inhibitor against oncogenic BCR-ABL kinase” (Scientific Reports, 2018).

Assay [1] deals with T1, BCR-ABL protein (Homo sapiens, UniProt P00519+P11274).
T1 construct: examined for their activity to degrade BCR-ABL in K562 cells for 6 h; BCR (fusion partner, P11274, N-terminal part); endogenous in cells; host or cells: K562
Put plainly: Protein knockdown by western blot in K562 cells. The format is cell-based. The following applies: 6 h. As to the method:
(§1) Cells were collected and lysed in a lysis buffer (0.5% Triton X-100, 0.01 M Tris-HCl (pH 7.5), 0.15 M NaCl, Complete Mini protease inhibitor cocktail (Roche Applied Science, Indianapolis, IL, USA) and PhosStop phosphatase inhibitor cocktail (Roche Applied Science)). Protein concentrations were measured by the BCA method (Thermo Fisher Scientific) and an equal amount of protein lysate was separated by SDS-PAGE, transferred to polyvinylidene difluoride membranes (Merck Millipore) and analyzed by western blot using an appropriate antibody. The immunoreactive proteins were visualized using Clarity Western ECL substrate (Bio-Rad, Hercules, CA, USA) and their light emission was quantified with a LAS-3000 lumino-image analyzer (Fuji, Tokyo, Japan).
In general terms: A western blot detects proteins with antibodies after separation by electrophoresis.

Assay [2] deals with phosphorylation of BCR-ABL, STAT5 and CrkL. Put plainly: Downstream kinase signaling (phosphorylation) by western blot in K562 cells. The format is cell-based, Human. As to the method:
as §1, with “Japan). The following antibodies were used: anti-cAbl rabbit polyclonal antibody (pAb) (#2862), anti-XIAP rabbit pAb (#2042), anti-phospho-cAbl rabbit pAb (#3009), anti-STAT5 rabbit pAb (#9363), anti-phospho-STAT5 rabbit pAb (#9359), anti-CrkL mouse monoclonal antibody (mAb) (#3182) and anti-phospho-CrkL rabbit pAb (#3181), anti-PARP rabbit pAb (#9532), and anti-cleaved Caspase 3 rabbit pAb (#9664) (Cell Signaling Technology, Danvers, MA, USA); anti-β-tubulin (ab6046) rabbit pAb (Abcam, Cambridge, UK) and anti-GAPDH rabbit pAb (sc-25778 HRP) (Santa Cruz, Dallas, TX, USA); anti-cIAP1 goat pAb (AF8181) (R&D systems).” for “Japan).”
(§2) Cells were seeded at a concentration of 2 × 10^6 cells per 10-cm tissue culture dish and treated with the indicated compounds for the indicated times. Then, the cells were washed three times to remove the compounds, and incubated in drug-free medium for the indicated times.

Another assay has as its target T2, ABL1 (Homo sapiens, UniProt P00519).
T2 construct: the His-tagged ABL1 protein (full length, P3049) were from Life Technologies; purchased Life Technologies P3049
Put plainly: TR-FRET binding assay, ABL1 (BODIPY-dasatinib probe). The conditions noted are these: concentration required to inhibit the probe binding to ABL by 50%, read-out: Binding affinity IC50 ABL. As for the experimental part: The TR-FRET assay was carried out using 384-well white flat-bottom plates (Greiner Bio-One) and the signal was measured using an EnVision Multilabel Plate Reader (PerkinElmer, Waltham, MA, USA).
(§3) The half maximal inhibitory concentration (IC50) of test compounds was calculated by fitting the data with the logistic equation using GraphPad Prism 5 (GraphPad Software, Inc., La Jolla, CA, USA) or XLfit (IDBS, Guildford, UK).
Before addition to the assay plate, 3-fold concentrations of the His-ABL1 protein, Tb-SA and the biotinylated anti-His antibody were mixed in the assay buffer and incubated for over 1 h at room temperature. Several concentrations of test inhibitors dissolved in the assay buffer were dispensed in the assay plate. […] The plate was incubated for 30 min at room temperature and the TR-FRET signal was measured using the EnVision Multilabel Plate Reader.
A general note: Time-resolved FRET reads energy transfer from a long-lived donor to a nearby acceptor.

The next assay concerns the target T3, XIAP (BIR3) (Homo sapiens, UniProt P98170).
T3 construct: human XIAP (BIR3, Asn252-Thr356, 895-XB-050); purchased R&D Systems 895-XB-050
Put plainly: TR-FRET IAP/Smac peptide interaction assay, XIAP. The following applies: FITC-Smac probe, read-out: Binding affinity IC50 XIAP. As for the experimental part: The TR-FRET assay was carried out using 384-well white flat-bottom plates (Greiner Bio-One) and the signal was measured using an EnVision Multilabel Plate Reader (PerkinElmer, Waltham, MA, USA). The solution in each well was excited with a laser (λ = 337 nm) reflected by a dichroic mirror (D400/D505 (Perkin Elmer) and fluorescence from terbium (Tb) and BODIPY or FITC was detected through two emission filters (CFP 486 (Perkin Elmer) for Tb and Emission 515 (Perkin Elmer) for BODIPY and FITC). The assay buffer used in this study was composed of 50 mM HEPES (pH 7.2–7.5), 10 mM MgCl2, 1 mM EGTA, 0.1 mM DTT and 0.01% (v/v) Brij^(R) 35. All assays were carried out at room temperature in triplicate or quadruplicate formats.
as §3
His-IAP proteins (XIAP, cIAP1 or cIAP2), FITC-Smac, Tb-SA and the biotinylated anti-His antibody (Life Technologies) were mixed in the assay buffer and incubated for over 1 h at room temperature before addition to the assay plate. […] After 1 h incubation at room temperature, the TR-FRET signal was measured using the EnVision Multilabel Plate Reader. […]

The target of assay [3] is T1, BCR-ABL protein. Put plainly: Washout experiment, BCR-ABL protein level by western blot in K562 cells. Type of assay: cell-based. The conditions noted are these: K562, 50 times IC50 for 12 h, BCR-ABL/β-tubulin. As to the method:
as §1, §2

The mark [4] stands for this setting: K562, 50 times IC50 for 12 h (time 0).

Structures are written as SMILES.

T1 sequence (P11274+P00519 fused): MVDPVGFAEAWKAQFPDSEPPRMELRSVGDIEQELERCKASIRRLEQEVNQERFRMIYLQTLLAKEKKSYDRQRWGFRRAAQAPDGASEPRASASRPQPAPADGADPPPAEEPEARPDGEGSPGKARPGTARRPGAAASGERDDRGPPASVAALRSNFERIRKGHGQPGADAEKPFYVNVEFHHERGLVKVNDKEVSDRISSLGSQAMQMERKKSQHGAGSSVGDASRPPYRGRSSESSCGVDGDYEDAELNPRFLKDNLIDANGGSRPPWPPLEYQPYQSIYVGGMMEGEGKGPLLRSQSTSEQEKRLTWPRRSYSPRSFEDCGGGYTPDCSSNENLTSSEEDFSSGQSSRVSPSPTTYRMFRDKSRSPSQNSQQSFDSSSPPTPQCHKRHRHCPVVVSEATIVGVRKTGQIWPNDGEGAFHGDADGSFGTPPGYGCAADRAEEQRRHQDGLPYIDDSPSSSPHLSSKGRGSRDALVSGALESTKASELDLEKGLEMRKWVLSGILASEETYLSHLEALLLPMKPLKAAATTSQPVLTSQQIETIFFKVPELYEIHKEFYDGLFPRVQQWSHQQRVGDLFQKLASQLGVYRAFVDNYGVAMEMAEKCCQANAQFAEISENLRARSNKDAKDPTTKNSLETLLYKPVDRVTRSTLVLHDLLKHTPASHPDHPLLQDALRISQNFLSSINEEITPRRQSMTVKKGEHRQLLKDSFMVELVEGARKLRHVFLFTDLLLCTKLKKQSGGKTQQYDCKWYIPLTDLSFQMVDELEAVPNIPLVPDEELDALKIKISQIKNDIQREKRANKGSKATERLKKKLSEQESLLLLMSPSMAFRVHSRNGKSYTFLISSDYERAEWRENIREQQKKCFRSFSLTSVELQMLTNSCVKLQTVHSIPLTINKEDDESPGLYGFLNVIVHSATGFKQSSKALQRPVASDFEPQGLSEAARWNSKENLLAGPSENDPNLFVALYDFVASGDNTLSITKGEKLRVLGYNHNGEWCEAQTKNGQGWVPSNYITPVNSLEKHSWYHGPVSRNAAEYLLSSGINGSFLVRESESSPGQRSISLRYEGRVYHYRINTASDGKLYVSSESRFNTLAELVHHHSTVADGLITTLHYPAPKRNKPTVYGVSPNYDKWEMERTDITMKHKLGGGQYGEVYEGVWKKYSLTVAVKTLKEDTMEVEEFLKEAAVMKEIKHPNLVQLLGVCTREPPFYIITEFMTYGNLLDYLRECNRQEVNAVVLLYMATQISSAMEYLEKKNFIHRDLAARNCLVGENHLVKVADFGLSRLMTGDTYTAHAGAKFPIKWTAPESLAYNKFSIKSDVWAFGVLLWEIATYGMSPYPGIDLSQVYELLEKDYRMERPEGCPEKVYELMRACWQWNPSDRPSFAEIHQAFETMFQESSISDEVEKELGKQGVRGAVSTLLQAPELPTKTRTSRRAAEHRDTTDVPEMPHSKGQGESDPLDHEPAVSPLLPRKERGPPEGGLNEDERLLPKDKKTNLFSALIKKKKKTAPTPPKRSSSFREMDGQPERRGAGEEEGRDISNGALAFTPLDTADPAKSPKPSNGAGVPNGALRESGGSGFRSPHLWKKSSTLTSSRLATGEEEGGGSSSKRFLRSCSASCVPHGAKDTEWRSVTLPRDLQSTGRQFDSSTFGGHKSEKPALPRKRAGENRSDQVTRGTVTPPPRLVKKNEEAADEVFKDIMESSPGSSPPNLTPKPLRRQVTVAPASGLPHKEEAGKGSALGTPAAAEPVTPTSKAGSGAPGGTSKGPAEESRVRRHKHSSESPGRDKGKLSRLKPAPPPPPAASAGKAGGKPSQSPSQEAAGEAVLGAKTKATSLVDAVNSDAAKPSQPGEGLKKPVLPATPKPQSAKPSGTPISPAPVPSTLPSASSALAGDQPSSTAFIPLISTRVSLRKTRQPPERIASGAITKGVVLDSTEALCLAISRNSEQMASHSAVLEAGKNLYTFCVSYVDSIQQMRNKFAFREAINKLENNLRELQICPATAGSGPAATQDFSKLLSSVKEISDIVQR
T2 sequence (P00519 whole entry): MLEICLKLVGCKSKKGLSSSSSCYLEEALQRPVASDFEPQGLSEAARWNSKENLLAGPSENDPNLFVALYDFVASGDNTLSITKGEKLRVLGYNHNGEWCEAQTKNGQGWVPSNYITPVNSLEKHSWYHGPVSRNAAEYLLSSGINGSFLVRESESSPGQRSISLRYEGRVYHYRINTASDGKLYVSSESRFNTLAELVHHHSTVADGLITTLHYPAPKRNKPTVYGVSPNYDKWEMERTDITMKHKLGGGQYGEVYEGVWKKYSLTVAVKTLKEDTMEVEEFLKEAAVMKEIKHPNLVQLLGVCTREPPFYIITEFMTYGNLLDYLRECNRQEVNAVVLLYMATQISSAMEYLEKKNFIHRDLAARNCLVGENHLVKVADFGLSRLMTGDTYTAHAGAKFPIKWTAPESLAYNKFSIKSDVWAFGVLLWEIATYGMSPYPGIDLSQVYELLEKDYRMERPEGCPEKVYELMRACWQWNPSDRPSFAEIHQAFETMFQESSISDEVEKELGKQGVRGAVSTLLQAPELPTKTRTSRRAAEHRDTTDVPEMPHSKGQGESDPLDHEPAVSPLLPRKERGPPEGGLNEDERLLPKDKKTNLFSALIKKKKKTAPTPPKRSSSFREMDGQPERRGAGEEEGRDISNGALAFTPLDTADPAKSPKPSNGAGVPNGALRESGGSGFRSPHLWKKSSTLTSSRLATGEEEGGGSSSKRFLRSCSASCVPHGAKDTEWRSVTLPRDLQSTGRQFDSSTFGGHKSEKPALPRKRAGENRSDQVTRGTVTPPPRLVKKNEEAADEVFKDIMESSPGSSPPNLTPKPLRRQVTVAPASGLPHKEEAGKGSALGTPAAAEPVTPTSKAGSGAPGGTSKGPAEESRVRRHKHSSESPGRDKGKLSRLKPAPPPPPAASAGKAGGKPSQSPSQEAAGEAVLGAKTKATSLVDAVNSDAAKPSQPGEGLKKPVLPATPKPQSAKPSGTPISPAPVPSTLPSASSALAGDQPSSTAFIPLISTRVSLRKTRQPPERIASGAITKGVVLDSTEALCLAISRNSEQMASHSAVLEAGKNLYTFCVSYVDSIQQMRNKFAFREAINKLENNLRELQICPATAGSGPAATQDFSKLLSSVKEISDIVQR
T3 sequence (P98170 252-356): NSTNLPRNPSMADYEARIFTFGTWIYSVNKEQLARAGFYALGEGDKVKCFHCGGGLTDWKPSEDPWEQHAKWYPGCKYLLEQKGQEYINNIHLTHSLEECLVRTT

`CN[C@@H](C)C(=O)N[C@H](C(=O)N1CCC[C@H]1c1nc(C(=O)c2cccc(OCCOCCOCCOCC(=O)N3CCN(c4cc(Nc5ncc(C(=O)Nc6c(C)cccc6Cl)s5)nc(C)n4)CC3)c2)cs1)C1CCCCC1` [DAS-IAP]: the “BCR-ABL, cIAP1 and XIAP protein levels” value on BCR-ABL protein [1] is given as “reduced”. Besides, the “knockdown activity against the BCR-ABL protein” value at BCR-ABL protein [1] (1-300 nM) is “effective knockdown activity”. Also, the “phosphorylation of BCR-ABL, STAT5 and CrkL” value in assay [2] (setting [4]) is given as “inhibited”; in assay [2] (K562 cells, 6 h), “suppressed”. Also, the “phosphorylated BCR-ABL, STAT5 and CrkL after drug removal” value in assay [2] (K562, 50 times IC50 for 12 h, 48 and 72 h after drug removal) is on record as “remained significantly diminished”. Also, the IC50 at ABL1 turned out to be 0.54 nM; at XIAP (BIR3) it was 50 nM. The figures for the “BCR-ABL % of control” value at BCR-ABL protein [3] (time after washout 0 h), at BCR-ABL protein [3] (time after washout 48 h) and at BCR-ABL protein [3] (time after washout 72 h) were 32 % of control, 2 % of control and 2 % of control, respectively.
Regarding `CN[C@@H](C)C(=O)N(C)[C@H](C(=O)N1CCC[C@H]1c1nc(C(=O)c2cccc(OCCOCCOCCOCC(=O)N3CCN(c4cc(Nc5ncc(C(=O)Nc6c(C)cccc6Cl)s5)nc(C)n4)CC3)c2)cs1)C1CCCCC1` [DAS-meIAP], the “BCR-ABL, cIAP1 and XIAP protein levels” value on BCR-ABL protein [1] was “did not reduce”. The “phosphorylation of BCR-ABL, STAT5 and CrkL” value in assay [2] (setting [4]) is given as “inhibited”; in assay [2] (K562 cells, 6 h) it was “suppressed”. The IC50 at ABL1 was less than 0.24 nM; on XIAP (BIR3), greater than 1000 nM. Also, the “BCR-ABL % of control” value on BCR-ABL protein [3] (time after washout 0 h) is 84 % of control; on BCR-ABL protein [3] (time after washout 48 h) it was 80 % of control; on BCR-ABL protein [3] (time after washout 72 h), 73 % of control.

Broadly, the IC50 is the concentration that inhibits the measured activity by half.
